Test results published in paper PMC2671240 (Journal of medicinal chemistry, 2009).
“And” between values parts separate entries of the source, which are not always exact repeats. Identical values can stand only once. Like-named read-outs stand apart in the source and are kept apart here. Marks after values point to notes of the source that are not given here.

Columns and labels:
[1] = system: subcutaneous pentylenetetrazole induced seizures; conditions: mice IP; cited from earlier work
[2] = system: minimal muscular or neurological impairment (gait); assay: TOX, abnormal uncoordinated gait, rat IP; format: in vivo
[3] = system: maximal electroshock induced seizures; assay: Maximal electroshock seizure; format: in vivo; conditions: rat PO, 30 mg/kg
[4] = system: subcutaneous pentylenetetrazole induced seizures; assay: Subcutaneous metrazole seizure; format: in vivo, rat; conditions: for scMET, number protected/number tested: rat PO
[5] = system: minimal muscular or neurological impairment (gait); assay: TOX, abnormal uncoordinated gait, rat PO; format: in vivo
kindled motor seizure = assay: Preliminary hippocampal kindling screen, rats IP; format: in vivo
seizures = assay: Antiseizure activity in mice dosed ip; format: in vivo; conditions: data not shown
[6] = system: subcutaneous pentylenetetrazole induced seizures; assay: Subcutaneous metrazole seizure; format: in vivo; conditions: rat IP, 50 mg/kg
[7] = system: minimal muscular or neurological impairment (rotorod); assay: TOX, motor impairment by rotorod paradigm, mice IP; format: in vivo; conditions: 100mg/kg
[8] = chronic dosing (5 days), data from NINDS; cited from earlier work
α1β3γ2 GABAA receptors = α1β3γ2 GABAA receptors (Homo sapiens, UniProt P14867+P18507); assay: Stimulation of GABA-induced currents in oocytes expressing GABAA receptors; conditions: concentration not given
[9] = system: maximal electroshock induced seizures; assay: Maximal electroshock seizure; format: in vivo; conditions: mice IP, 100mg/kg
[10] = system: subcutaneous pentylenetetrazole induced seizures; assay: Subcutaneous metrazole seizure; format: in vivo, mice; conditions: 100mg/kg; for scMET, number protected/number tested: mice IP
[11] = system: subcutaneous pentylenetetrazole induced seizures; conditions: rat PO; cited from earlier work
[12] = rats IP, 30mg/kg, after 1h of dosing (kindling screen table)

α1β3γ2 GABAA receptors, sequence (P14867 28-456): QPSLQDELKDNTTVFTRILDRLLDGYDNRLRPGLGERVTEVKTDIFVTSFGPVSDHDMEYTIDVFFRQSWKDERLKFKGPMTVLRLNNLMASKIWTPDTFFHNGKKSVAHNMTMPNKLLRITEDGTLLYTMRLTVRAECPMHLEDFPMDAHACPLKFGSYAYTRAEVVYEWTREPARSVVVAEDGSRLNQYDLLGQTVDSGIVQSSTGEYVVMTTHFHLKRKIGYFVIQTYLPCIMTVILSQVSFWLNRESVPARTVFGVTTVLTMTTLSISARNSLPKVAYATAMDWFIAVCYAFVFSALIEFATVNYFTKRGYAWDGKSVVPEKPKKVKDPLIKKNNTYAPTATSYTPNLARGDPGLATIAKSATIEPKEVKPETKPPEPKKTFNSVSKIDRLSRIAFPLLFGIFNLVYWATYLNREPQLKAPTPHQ
α1β3γ2 GABAA receptors, sequence (P28472 26-473 partner): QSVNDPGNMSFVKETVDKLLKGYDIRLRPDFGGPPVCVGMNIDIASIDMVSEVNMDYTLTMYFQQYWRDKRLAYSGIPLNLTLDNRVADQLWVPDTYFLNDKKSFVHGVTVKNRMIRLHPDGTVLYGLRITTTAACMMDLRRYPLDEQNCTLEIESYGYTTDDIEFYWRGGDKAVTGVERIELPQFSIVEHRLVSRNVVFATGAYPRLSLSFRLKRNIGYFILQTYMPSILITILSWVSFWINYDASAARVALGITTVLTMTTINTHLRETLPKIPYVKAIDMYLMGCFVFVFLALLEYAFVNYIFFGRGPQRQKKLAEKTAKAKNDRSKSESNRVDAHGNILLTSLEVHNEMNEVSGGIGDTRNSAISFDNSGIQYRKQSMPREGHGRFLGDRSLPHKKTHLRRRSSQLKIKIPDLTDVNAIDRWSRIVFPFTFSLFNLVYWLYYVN
α1β3γ2 GABAA receptors, sequence (P18507 40-475): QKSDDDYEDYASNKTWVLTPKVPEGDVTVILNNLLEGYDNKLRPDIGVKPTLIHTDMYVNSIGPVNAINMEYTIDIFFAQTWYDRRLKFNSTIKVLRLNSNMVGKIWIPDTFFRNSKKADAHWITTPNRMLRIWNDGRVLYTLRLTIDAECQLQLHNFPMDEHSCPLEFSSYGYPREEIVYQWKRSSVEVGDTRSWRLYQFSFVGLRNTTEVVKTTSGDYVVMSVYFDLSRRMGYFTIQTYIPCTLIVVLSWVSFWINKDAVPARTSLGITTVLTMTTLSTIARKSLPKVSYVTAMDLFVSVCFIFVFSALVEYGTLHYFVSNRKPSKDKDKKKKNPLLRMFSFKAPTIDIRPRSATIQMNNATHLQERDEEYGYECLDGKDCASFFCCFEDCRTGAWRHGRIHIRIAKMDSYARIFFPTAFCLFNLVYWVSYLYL

Row | SMILES | ED50 scMET [1] | MES, number protected/number tested ([3]; 0.5 h) | MES, number protected/number tested ([3]; 4.0 h) | scMET, number protected/number tested ([4]; 50 mg/kg, 0.5 h) | scMET, number protected/number tested ([4]; 50 mg/kg, 4.0 h) | TOX, number toxic/number tested ([5]; 0.5 h) | TOX, number toxic/number tested ([5]; 4.0 h) | TOX, number toxic/number tested ([2]; rat IP, 0.5 h) | TOX, number toxic/number tested ([2]; rat IP, 4.0 h) | scMET, number protected/number tested ([6]; 0.5 h) | scMET, number protected/number tested ([6]; 4.0 h) | TOX, number toxic/number tested [2, 12] | efficacy at α1 (α1β3γ2 GABAA receptors) | also measured
1 | NC(=O)N1c2ccccc2C=Cc2ccccc21 [Carbamazepine] | >50 mg/kg |  |  |  |  |  |  |  |  |  |  |  |  | 
2 | C#Cc1ccc2c(c1)C(c1ccccc1Cl)=NCc1nnc(C)n1-2 [compound 4] |  | 0/4 | 0/4 | 4/4 | 3/4 | 0/4 | 0/4 |  |  |  |  |  |  | TOX, number toxic/number tested ([2]; rats IP, 3mg/kg, after 1h of dosing (kindling screen table)): 0/2 ^f; scMET, number protected/number tested ([4]; 15 mg/kg, 0.5 h): 3/4; scMET, number protected/number tested ([4]; 15 mg/kg, 4.0 h): 2/4; Seizure Score, Drug L - H (kindled motor seizure; 10mg/kg, pre-drug 5): 3
3 | CCOC(=O)c1ncn2c1CN=C(c1ccccc1F)c1cc(I)ccc1-2 [compound 5] |  |  |  | 2/6 |  | 0/6 |  | 0/4 | 0/4 | 1/4 | 2/4 |  |  | activity in mice dosed ip (seizures): no activity; scMET, number protected/number tested ([4]; 50 mg/kg, after 1 h of dosing (footnote d, row 4.0 h), 50 mg/kg): 5/6 and 5/6 ^d; TOX, number toxic/number tested ([5]; after 1 h of dosing (footnote d, row 4.0 h)): no observed TOX and 0/6 ^d
4 | C#Cc1ccc2c(c1)C(c1ccccn1)=NCc1c(C(=O)OCC)ncn1-2 [compound 2] |  | 1/4 | 0/4 | 4/4 | 0/4 | 0/4 | 0/4 | 0/8 |  | 7/8 |  | 0/2 ^e | 233% | TOX, number toxic/number tested ([7]; 0.5 h): no motor impairment and 0/8; TOX, number toxic/number tested ([7]; 4.0 h): 0/4; tolerance to the anticonvulsant effects [8]: did not develop; TOX, number toxic/number tested ([2]; rat IP, after 1 h of dosing (footnote d, row 4.0 h)): 0/8 ^d; protection (scMET) ([4]; rats, po dosing, after four hours): no protection; Seizure Score, Drug L - H (kindled motor seizure; 100mg/kg, pre-drug 4 5): 3; MES, number protected/number tested ([9]; 0.5 h): 0/3; MES, number protected/number tested ([9]; 4.0 h): 0/3; scMET, number protected/number tested ([10]; 0.5 h): 3/5; scMET, number protected/number tested ([10]; 4.0 h): absent and 0/1; mice with raised scMET seizure threshold ([10]; mice ip, 0.5 h): 60%
5 | C#Cc1ccc2c(c1)C(c1ccccc1F)=NCc1c(C(=O)OCC)ncn1-2 [compound 3] |  | 0/4 | 1/4 | 3/4 | 4/4 | 0/4 | 0/4 | 0/4 | 0/4 | 3/4 | 3/4 | 0/2 ^e | 282% | Seizure Score, Drug L - H (kindled motor seizure; 50mg/kg, pre-drug 5): 3
6 | O=C1NC(=O)C(c2ccccc2)(c2ccccc2)N1 [Phenytoin] | >50 mg/kg |  |  |  |  |  |  |  |  |  |  |  |  | ED50 scMET [11]: >500 mg/kg
